Source: patent US7732463B2, “4-(2-phenylsulfanyl-phenyl)-piperidine derivatives as serotonin reuptake inhibitors” (H. Lundbeck A/S, priority 2003, dated 2010)

Key:
[1] = target: human 5-HT2C-VSV receptors (Homo sapiens, UniProt P28335, I156V/I160V/N158S); assay type: binding
hippocampal 5-HT = settings: rats, microdialysis, combined with citalopram; cited from earlier work

human 5-HT2C-VSV receptors, sequence (P28335 33-458 I156V/N158S/I160V limits assumed): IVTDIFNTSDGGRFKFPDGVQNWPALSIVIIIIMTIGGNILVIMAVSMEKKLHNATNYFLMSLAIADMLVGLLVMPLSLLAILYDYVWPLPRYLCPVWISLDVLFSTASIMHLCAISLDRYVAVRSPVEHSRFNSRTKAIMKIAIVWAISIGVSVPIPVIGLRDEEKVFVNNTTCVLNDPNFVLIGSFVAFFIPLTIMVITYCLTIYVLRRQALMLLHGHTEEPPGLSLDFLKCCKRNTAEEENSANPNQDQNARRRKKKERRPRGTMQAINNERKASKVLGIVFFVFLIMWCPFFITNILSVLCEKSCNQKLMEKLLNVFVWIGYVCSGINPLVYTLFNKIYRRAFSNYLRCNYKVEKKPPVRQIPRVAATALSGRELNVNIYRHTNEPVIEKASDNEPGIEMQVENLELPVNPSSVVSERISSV

Compound | affinity to the 5HT2C receptor [1] | increase of hippocampal 5-HT by citalopram (hippocampal 5-HT)
COc1ccc(Sc2ccc(C)cc2C2CCNCC2)cc1 [1i, 4-[2-(4-Methoxy-phenylsulfanyl)-5-methyl-phenyl]-piperidine] | good affinity | 
Cc1ccc(Sc2c(F)cccc2C2CCNCC2)c(C)c1 [2u, 4-[2-(2,4-Dimethyl-phenylsulfanyl)-3-fluoro-phenyl]-piperidine] | good affinity | 
COc1ccc(Sc2cc(F)ccc2C2CCNCC2)cc1 [1e, 4-[2-(4-Methoxy-phenylsulfanyl)-4-fluoro-phenyl]-piperidine] | good affinity | 
COc1ccc(Sc2ccccc2C2CCNCC2)cc1 [1b, 4-[2-(4-Methoxy-phenylsulfanyl)-phenyl]-piperidine] | good affinity | 
COc1cc(Sc2cccc(F)c2C2CCNCC2)ccc1F [3d13, 4-[2-(4-Fluoro-3-methoxy-phenylsulfanyl)-6-fluoro-phenyl]-piperidine] | good affinity | 
COc1ccc(Sc2c(F)cccc2C2CCNCC2)cc1 [2d, 4-[2-(4-Methoxy-phenylsulfanyl)-3-fluoro-phenyl]-piperidine] | good affinity | 
COc1ccc(Sc2cccc(F)c2C2CCNCC2)c(Cl)c1 [3d25, 4-[2-(2-Chloro-4-methoxy-phenylsulfanyl)-6-fluoro-phenyl]-piperidine] | good affinity | 
Fc1cccc(Sc2cccc(Cl)c2F)c1C1CCNCC1 [3d17, 4-[2-(3-Chloro-2-fluoro-phenylsulfanyl)-6-fluoro-phenyl]-piperidine] | good affinity | 
Fc1ccc(C2CCNCC2)c(Sc2ccccc2Cl)c1 [3f2, 4-[2-(2-Chloro-phenylsulfanyl)-4-fluoro-phenyl]-piperidine] | good affinity | 
Fc1ccc(Sc2ccccc2C2CCNCC2)c(F)c1 [3a4, 4-[2-(2,4-Difluoro-phenylsulfanyl)-phenyl]-piperidine] | good affinity | 
Fc1ccc(Sc2cccc(F)c2C2CCNCC2)cc1 [3d27, 4-[2-(4-Fluoro-phenylsulfanyl)-6-fluoro-phenyl]-piperidine] | good affinity | 
Fc1ccc(Sc2cc(F)ccc2C2CCNCC2)cc1 [3f3, 4-[2-(4-Fluoro-phenylsulfanyl)-4-fluoro-phenyl]-piperidine] | good affinity | 
Clc1ccc(Sc2ccccc2C2CCNCC2)cc1 [2a] | good affinity | 
COc1ccc(Sc2cccc(F)c2C2CCNCC2)c(C)c1 [3d4, 4-[2-(4-Methoxy-2-methyl-phenylsulfanyl)-6-fluoro-phenyl]-piperidine] | good affinity | 
Fc1ccc(Sc2ccc(F)cc2C2CCNCC2)c(F)c1 [2t, 4-[2-(2,4-Difluoro-phenylsulfanyl)-5-fluoro-phenyl]-piperidine] | good affinity | 
Fc1cccc(Sc2cccc(F)c2C2CCNCC2)c1 [3d11, 4-[2-(3-Fluoro-phenylsulfanyl)-6-fluoro-phenyl]-piperidine] | good affinity | 
Fc1cccc(Sc2cccc(Cl)c2)c1C1CCNCC1 [3d10, 4-[2-(3-Chloro-phenylsulfanyl)-6-fluoro-phenyl]-piperidine] | good affinity | 
Cc1ccc(Sc2cccc(F)c2C2CCNCC2)cc1 [3d18, 4-[2-(4-Methyl-phenylsulfanyl)-6-fluoro-phenyl]-piperidine] | good affinity | 
Cc1ccc(Sc2ccc(F)cc2C2CCNCC2)c(F)c1 [2q, 4-[2-(2-Fluoro-4-methyl-phenylsulfanyl)-5-fluoro-phenyl]-piperidine] | good affinity | 
Fc1ccc(Sc2cccc(F)c2C2CCNCC2)c(F)c1 [3d24, 4-[2-(2,4-Difluoro-phenylsulfanyl)-6-fluoro-phenyl]-piperidine] | good affinity | 

Compound | affinity to the 5HT2C receptor [1] | increase of hippocampal 5-HT by citalopram (hippocampal 5-HT)
Fc1cccc(Sc2ccc(C(F)(F)F)cc2)c1C1CCNCC1 [3d16, 4-[2-(4-Trifluoromethyl-phenylsulfanyl)-6-fluoro-phenyl]-piperidine] | good affinity | 
Fc1ccccc1Sc1cccc(F)c1C1CCNCC1 [3d12, 4-[2-(2-Fluoro-phenylsulfanyl)-6-fluoro-phenyl]-piperidine] | good affinity | 
Fc1ccc(Sc2ccccc2C2CCNCC2)c(Cl)c1 [3a2, 4-[2-(2-Chloro-4-fluoro-phenylsulfanyl)-phenyl]-piperidine] | good affinity | 
Fc1ccc(C2CCNCC2)c(Sc2ccc(Cl)cc2)c1 [1d, 4-[2-(4-Chloro-phenylsulfanyl)-4-fluoro-phenyl]-piperidine] | good affinity | 
COc1ccc(Sc2cccc(F)c2C2CCNCC2)c(F)c1 [3d23, 4-[2-(2-Fluoro-4-methoxy-phenylsulfanyl)-6-fluoro-phenyl]-piperidine] | good affinity | 
Fc1ccc(Sc2ccc(F)cc2C2CCNCC2)cc1 [2j, 4-[2-(4-Fluoro-phenylsulfanyl)-5-fluoro-phenyl]-piperidine] | good affinity | 
Fc1cc(Cl)ccc1Sc1cccc(F)c1C1CCNCC1 [3d15, 4-[2-(4-Chloro-2-fluoro-phenylsulfanyl)-6-fluoro-phenyl]-piperidine] | good affinity | 
Fc1ccc(Sc2ccc(Br)cc2F)c(C2CCNCC2)c1 [2x, 4-[2-(4-Bromo-2-fluoro-phenylsulfanyl)-5-fluoro-phenyl]-piperidine] | good affinity | 
Cc1ccc(Sc2ccc(Cl)cc2)c(C2CCNCC2)c1 [2g, 4-[2-(4-Chloro-phenylsulfanyl)-5-methyl-phenyl]-piperidine] | good affinity | 
Cc1ccc(Sc2cccc(F)c2C2CCNCC2)cc1F [3d7, 4-[2-(3-Fluoro-4-methyl-phenylsulfanyl)-6-fluoro-phenyl]-piperidine] | good affinity | 
COc1ccc(Sc2ccc(F)cc2C2CCNCC2)c(F)c1 [2a3, 4-[2-(2-Fluoro-4-methoxy-phenylsulfanyl)-5-fluoro-phenyl]-piperidine] | good affinity | 
COc1ccc(Sc2ccc(F)cc2)c(C2CCNCC2)c1 [3c2, 4-[2-(4-Fluoro-phenylsulfanyl)-5-methoxy-phenyl]-piperidine] | good affinity | 
COc1ccc(Sc2ccc(F)cc2C2CCNCC2)cc1 [2b, 4-[2-(4-Methoxy-phenylsulfanyl)-5-fluoro-phenyl]-piperidine] | good affinity | 
COc1ccc(Sc2cccc(F)c2C2CCNCC2)cc1 [3d26, 4-[2-(4-Methoxy-phenylsulfanyl)-6-fluoro-phenyl]-piperidine] | good affinity | 
Fc1cccc(Sc2ccc(Cl)cc2)c1C1CCNCC1 [3d19, 4-[2-(4-Chloro-phenylsulfanyl)-6-fluoro-phenyl]-piperidine] | good affinity | 
COc1ccc(NC(=O)c2ccc(-c3ccc(-c4nnc(C)o4)cc3C)cc2)cc1N1CCN(C)CC1 [GMC 2-29] |  | potentiated
Cc1ccc(Sc2cccc(F)c2C2CCNCC2)c(F)c1 [3d21, 4-[2-(2-Fluoro-4-methyl-phenylsulfanyl)-6-fluoro-phenyl]-piperidine] | good affinity | 
Cc1ccc(Sc2ccc(C)cc2C2CCNCC2)cc1 [1f, 4-[2-(4-Methyl-phenylsulfanyl)-5-methyl-phenyl]-piperidine] | good affinity | 
Cc1ccc(Sc2ccc(F)cc2C)c(C2CCNCC2)c1 [1h, 4-[2-(4-Fluoro-2-methyl-phenylsulfanyl)-5-methyl-phenyl]-piperidine] | good affinity | 
Fc1ccc(Sc2ccc(Cl)cc2F)c(C2CCNCC2)c1 [2p, 4-[2-(4-Chloro-2-fluoro-phenylsulfanyl)-5-fluoro-phenyl]-piperidine] | good affinity | 
